In ChEMBL document CHEMBL1201862, “PubChem BioAssay data set” (2004):
Values joined by “and” are separate entries in the source; they are usually repeats but may differ in a detail not shown here. Identical values can stand only once.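 Protocol summary: plate cells (96-well), add compound at 5 concentrations, incubate 48 h, interpolate endpoints linearly. Abbreviation: GI50, concentration required for 50% inhibition of growth.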 Active and inactive are the calls of the source. Rule as the data show it: active = GI50 up to about 1.1 µM and inactive = higher.

How the values were obtained:
Test in all cases: NCI tumour cell line growth inhibition, 48 h
MDA-MB-231 = system: MDA-MB-231
IGROV-1 = system: IGROV-1
Malme-3M = system: Malme-3M
NCI-H226 = system: NCI-H226
OVCAR-8 = system: OVCAR-8
TK-10 = system: TK-10
BT-549 = system: BT-549
SK-OV-3 = system: SK-OV-3
HT-29 = system: HT-29
OVCAR-5 = system: OVCAR-5
EKVX = system: EKVX
MDA-MB-435 = system: MDA-MB-435
Hs-578T = system: Hs-578T
CCRF-CEM = system: CCRF-CEM
ACHN = system: ACHN
MCF7 = system: MCF7
SF-295 = system: SF-295
LOX IMVI = system: LOX IMVI
SR = system: SR

Measured: GI50

CC(C)[C@@H]1NC(=O)[C@H]2N=C(O[C@@H]2C)[C@@H]2CCCN2C(=O)[C@H](Cc2ccccc2)NC(=O)[C@@H]2CSC(=N2)[C@@H](Cc2ccccc2)NC(=O)[C@@H]2CSC1=N2
inactive: MDA-MB-231 > 50 µM | IGROV-1 > 50 µM | Malme-3M > 50 µM | NCI-H226 38.5 µM | OVCAR-8 > 50 µM | TK-10 > 50 µM | BT-549 > 50 µM | SK-OV-3 > 50 µM | HT-29 38.8 µM | OVCAR-5 > 50 µM | EKVX > 50 µM | MDA-MB-435 36.4 µM | Hs-578T 32.8 µM | CCRF-CEM 16.3 µM | ACHN > 50 µM | MCF7 18.9 µM | SF-295 34.6 µM | LOX IMVI 23.7 µM

CC1CNC(c2ccc(COc3ccc(C4=NC(C)CN4)cc3)cc2)=N1 (stereo unspecified)
inactive: MDA-MB-231 45.9 µM | IGROV-1 > 100 µM | Malme-3M 27.6 µM | OVCAR-8 72.6 µM | TK-10 65.9 µM | BT-549 > 100 µM | SK-OV-3 73.1 µM | HT-29 > 100 µM | OVCAR-5 > 100 µM | EKVX > 100 µM | MDA-MB-435 61 µM | Hs-578T 22.9 µM | CCRF-CEM 59.6 µM | ACHN > 100 µM | MCF7 18.3 µM | SF-295 43.4 µM | LOX IMVI > 100 µM

NC(Cc1ccc2nc3c4ccccc4c(=O)cc-3oc2c1)C(=O)O (stereo unspecified)
inactive: MDA-MB-231 > 100 µM | IGROV-1 > 100 µM | Malme-3M 14.8 µM | TK-10 > 100 µM | SR > 100 µM | BT-549 > 100 µM | SK-OV-3 > 100 µM | HT-29 71.3 µM | OVCAR-5 > 100 µM | EKVX > 100 µM | MDA-MB-435 18.2 µM | Hs-578T 56.1 µM | CCRF-CEM > 100 µM | ACHN > 100 µM | MCF7 18.4 µM | SF-295 > 100 µM | LOX IMVI 45.8 µM

COC(=O)C(=O)C(C(=O)C(=O)Nc1ccccc1C(=O)OC)c1nc2ccc(C(=O)c3ccccc3)cc2nc1O (stereo unspecified)
inactive: MDA-MB-231 76.4 µM | IGROV-1 62.8 µM | Malme-3M 76.9 µM | NCI-H226 > 100 µM | OVCAR-8 39.4 µM | TK-10 > 100 µM | BT-549 > 100 µM | SK-OV-3 60.7 µM | HT-29 41.1 µM | OVCAR-5 > 100 µM | EKVX 80.4 µM | MDA-MB-435 38.9 µM | Hs-578T 33.2 µM | ACHN 52.6 µM | MCF7 66.5 µM | SF-295 47.2 µM | LOX IMVI 87.3 µM

CC(=O)Oc1ccc2c(c1OC(C)=O)CCC1C2=CC[C@]2(C)C(=O)CCC12 (stereo partly specified)
inactive: MDA-MB-231 14.3 µM | IGROV-1 4.73 µM | Malme-3M 13.8 µM | OVCAR-8 14.3 µM | TK-10 13.9 µM | SR 6.61 µM | BT-549 15.6 µM | SK-OV-3 20.7 µM | HT-29 17.6 µM | OVCAR-5 15.1 µM | EKVX 10.5 µM | MDA-MB-435 4.45 µM | Hs-578T 19.6 µM | CCRF-CEM 3.37 µM | ACHN 11.8 µM | MCF7 14.2 µM | SF-295 12.9 µM

COc1ccc(-c2oc3cc(OC)c(OC)c(OC)c3c(=O)c2OC)cc1OC [HEXAMETHOXYFLAVONE]
inactive: MDA-MB-231 > 100 µM | IGROV-1 > 100 µM | Malme-3M > 100 µM | NCI-H226 > 100 µM | OVCAR-8 > 100 µM | TK-10 > 100 µM | BT-549 > 100 µM | SK-OV-3 > 100 µM | HT-29 > 100 µM | OVCAR-5 > 100 µM | EKVX > 100 µM | MDA-MB-435 > 100 µM | Hs-578T > 100 µM | CCRF-CEM > 100 µM | ACHN > 100 µM | MCF7 > 100 µM | SF-295 > 100 µM | LOX IMVI > 100 µM

COc1cc(OC)cc(-c2nc(O)c3ccccc3n2)c1
inactive: MDA-MB-231 86.1 µM | IGROV-1 93.1 µM | Malme-3M > 100 µM | NCI-H226 > 100 µM | OVCAR-8 24.6 µM | TK-10 43.5 µM | BT-549 > 100 µM | SK-OV-3 22.8 µM | HT-29 > 100 µM | OVCAR-5 > 100 µM | EKVX > 100 µM | MDA-MB-435 > 100 µM | Hs-578T 38.8 µM | CCRF-CEM > 100 µM | ACHN > 100 µM | SF-295 29 µM | LOX IMVI > 100 µM

CC(C)Cc1cnc(CC(C)C)c(=O)[nH]1
inactive: MDA-MB-231 > 100 µM | IGROV-1 > 100 µM | OVCAR-8 > 100 µM | TK-10 > 100 µM | SR > 100 µM | BT-549 > 100 µM | SK-OV-3 > 100 µM | HT-29 > 100 µM | OVCAR-5 > 100 µM | EKVX > 100 µM | MDA-MB-435 > 100 µM | Hs-578T > 100 µM | CCRF-CEM > 100 µM | ACHN > 100 µM | MCF7 > 100 µM | SF-295 > 100 µM | LOX IMVI > 100 µM

COC(=O)[C@H](Cc1ccccc1)NC(=O)[C@H](Cc1ccccc1)NC(=O)CN1C(=O)[C@@H]2C3C=CC(C3)[C@@H]2C1=O
inactive: MDA-MB-231 17.3 µM and 17 µM | IGROV-1 16.5 µM and 12.9 µM | NCI-H226 20.1 µM and 19.1 µM | OVCAR-8 14.8 µM and 19.6 µM | TK-10 18.9 µM and 17.5 µM | BT-549 16.6 µM and 18.2 µM | SK-OV-3 16.7 µM | HT-29 19.2 µM and 20 µM | OVCAR-5 22 µM and 19.8 µM | EKVX 19.8 µM and 18.7 µM | MDA-MB-435 15.3 µM and 17.3 µM | Hs-578T 19.1 µM and 19.5 µM | ACHN 16.7 µM and 16.2 µM | MCF7 18.5 µM and 17.8 µM | SF-295 18.5 µM and 19.2 µM | LOX IMVI 18.3 µM and 17.9 µM

Cc1ccccc1-c1nc2c(N)nc(N)nc2nc1N
inactive: MDA-MB-231 3.3 µM | IGROV-1 6.82 µM | OVCAR-8 14.1 µM | TK-10 > 100 µM | SR 62.7 µM | BT-549 > 100 µM | SK-OV-3 > 100 µM | HT-29 > 100 µM | OVCAR-5 39.9 µM | EKVX 38.1 µM | MDA-MB-435 5.36 µM | Hs-578T > 100 µM | CCRF-CEM 4.74 µM | ACHN 5.6 µM | MCF7 30.2 µM | SF-295 12.8 µM | LOX IMVI 3.44 µM

CCOC(=O)c1cc(NC(=O)N(CCC#N)CCN(C(=O)N[C@@H](Cc2ccccc2)C(=O)N[C@@H](CC(C)C)C(=O)NC)c2ccccc2)ccc1OC
inactive: MDA-MB-231 74.5 µM | IGROV-1 41.8 µM | Malme-3M 29.4 µM | NCI-H226 35.5 µM | OVCAR-8 84.9 µM | TK-10 46.5 µM | BT-549 30.9 µM | SK-OV-3 70 µM | OVCAR-5 > 100 µM | EKVX 63.1 µM | MDA-MB-435 30.9 µM | Hs-578T 42.2 µM | CCRF-CEM 89.9 µM | ACHN 25.3 µM | MCF7 58.6 µM | SF-295 34.6 µM | LOX IMVI 18.2 µM

O=C(c1ccc(O)c([N+](=O)[O-])c1)c1ccc(O)c([N+](=O)[O-])c1
inactive: MDA-MB-231 > 100 µM | IGROV-1 > 100 µM | Malme-3M 37 µM | NCI-H226 > 100 µM | OVCAR-8 > 100 µM | TK-10 > 100 µM | BT-549 33 µM | SK-OV-3 > 100 µM | HT-29 > 100 µM | OVCAR-5 > 100 µM | EKVX > 100 µM | MDA-MB-435 20.8 µM | Hs-578T 46.3 µM | CCRF-CEM 31.9 µM | ACHN > 100 µM | MCF7 93.1 µM | SF-295 46.3 µM | LOX IMVI > 100 µM

CC(=O)NC1C(CO)O[C@@H]2OC(C)(C)O[C@H]12 (stereo partly specified)
inactive: MDA-MB-231 > 100 µM | IGROV-1 > 100 µM | Malme-3M > 100 µM | OVCAR-8 > 100 µM | TK-10 > 100 µM | BT-549 > 100 µM | HT-29 > 100 µM | OVCAR-5 > 100 µM | EKVX > 100 µM | MDA-MB-435 > 100 µM | Hs-578T > 100 µM | CCRF-CEM > 100 µM | ACHN > 100 µM | MCF7 > 100 µM | SF-295 > 100 µM | LOX IMVI > 100 µM

CCOC(=O)C(O)Cc1cnc2ccccc2n1 (stereo unspecified)
inactive: MDA-MB-231 > 100 µM | IGROV-1 94.2 µM | Malme-3M > 100 µM | OVCAR-8 > 100 µM | TK-10 > 100 µM | SR > 100 µM | BT-549 > 100 µM | SK-OV-3 > 100 µM | HT-29 > 100 µM | OVCAR-5 > 100 µM | EKVX 73.5 µM | MDA-MB-435 > 100 µM | Hs-578T > 100 µM | CCRF-CEM 44.9 µM | ACHN > 100 µM | MCF7 80.7 µM | LOX IMVI > 100 µM

CCN(CC)CCOC(c1cc(OC)ccc1OC)c1ccc2n1-c1ccccc1OC2 (stereo unspecified)
inactive: MDA-MB-231 2.09 µM | IGROV-1 7 µM | Malme-3M 18.5 µM | NCI-H226 3.98 µM | OVCAR-8 13.2 µM | TK-10 12.1 µM | BT-549 12.7 µM | HT-29 3.41 µM | OVCAR-5 15.8 µM | EKVX 16.1 µM | MDA-MB-435 10.5 µM | Hs-578T 13.7 µM | CCRF-CEM 3.25 µM | ACHN 13.8 µM | MCF7 14.6 µM | SF-295 10.4 µM | LOX IMVI 11.5 µM
